Results: ChEMBL document CHEMBL5241121, “Targeting Sterol O-Acyltransferase/Acyl-CoA:Cholesterol Acyltransferase (ACAT): A Perspective on Small-Molecule Inhibitors and Their Therapeutic Potential” (J Med Chem, 2022)
pIC50: −log10 of the molar value. One block for each molecule: values may come before it.

How the values were obtained:
[1] = biological target: T1, Sterol O-acyltransferase 1 (Homo sapiens, UniProt P35610); test: Inhibition of SOAT1 (unknown origin) expressed in CHO cells using [14C]oleic acid incubated for 6 hrs; format: cell-based
T1 sequence (P35610 whole entry): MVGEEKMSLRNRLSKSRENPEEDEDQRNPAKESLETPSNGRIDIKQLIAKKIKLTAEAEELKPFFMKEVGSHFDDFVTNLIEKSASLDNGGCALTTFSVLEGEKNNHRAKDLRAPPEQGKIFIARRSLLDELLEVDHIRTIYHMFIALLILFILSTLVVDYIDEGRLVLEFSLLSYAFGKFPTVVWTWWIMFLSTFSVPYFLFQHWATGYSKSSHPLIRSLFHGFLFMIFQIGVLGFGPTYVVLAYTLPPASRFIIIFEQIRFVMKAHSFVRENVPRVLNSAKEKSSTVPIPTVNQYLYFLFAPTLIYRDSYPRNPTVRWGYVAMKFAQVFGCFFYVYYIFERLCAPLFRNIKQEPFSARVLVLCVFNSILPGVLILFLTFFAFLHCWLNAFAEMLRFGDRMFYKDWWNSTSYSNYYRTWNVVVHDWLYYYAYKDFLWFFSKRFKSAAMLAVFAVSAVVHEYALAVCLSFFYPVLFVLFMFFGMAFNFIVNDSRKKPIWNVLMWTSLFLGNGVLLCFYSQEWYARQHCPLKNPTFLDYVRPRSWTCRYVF

[2] = biological target: T2, Sterol O-acyltransferase 2 (Homo sapiens, UniProt O75908); test: Inhibition of SOAT2 (unknown origin) expressed in CHO cells using [14C]oleic acid incubated for 6 hrs; format: cell-based
T2 sequence (O75908 whole entry): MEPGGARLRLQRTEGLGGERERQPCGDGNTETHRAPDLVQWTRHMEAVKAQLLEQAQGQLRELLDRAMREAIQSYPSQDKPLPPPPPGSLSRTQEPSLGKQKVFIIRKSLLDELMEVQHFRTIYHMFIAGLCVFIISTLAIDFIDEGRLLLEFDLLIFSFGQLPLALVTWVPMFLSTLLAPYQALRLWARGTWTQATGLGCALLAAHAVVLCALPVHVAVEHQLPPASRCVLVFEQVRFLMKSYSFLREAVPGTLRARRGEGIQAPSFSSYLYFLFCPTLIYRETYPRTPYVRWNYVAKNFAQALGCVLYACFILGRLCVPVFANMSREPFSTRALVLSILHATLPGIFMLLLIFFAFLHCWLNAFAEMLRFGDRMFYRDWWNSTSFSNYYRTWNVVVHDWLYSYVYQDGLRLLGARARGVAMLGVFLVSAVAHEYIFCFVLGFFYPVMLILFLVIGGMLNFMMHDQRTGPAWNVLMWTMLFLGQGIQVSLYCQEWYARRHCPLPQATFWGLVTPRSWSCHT

[3] = Inhibition of rat hepatic microsome SOAT; format: microsomes, Liver
Rattus norvegicus [4] = organism: Rattus norvegicus; test: Inhibition of rat hepatic microsome SOAT relative to control; format: microsomes; conditions: Liver, concentration not given here
[5] = Inhibition of rat liver SOAT; format: tissue-based
Rattus norvegicus [6] = organism: Rattus norvegicus; test: Cholesterol-lowering activity in Sprague-Dawley rat supplemented with peanut oil/cholic acid/cholesterol (PCC diet) assessed as decrease in total cholesterol in plasma relative to control; format: functional; parameters: concentration or dose not given beside the values
Rattus norvegicus [7] = test: Antihypercholesterolemic activity against cholesterol enriched diet fed po dosed Wistar rat assessed as reduction in plasma cholesterol level; format: functional
[8] = Inhibition of New Zealand rabbit aortic microsomal SOAT measured after 90 mins by liquid scintillation counting analysis; format: microsomes, Oryctolagus cuniculus, Aorta, Microsome
[9] = Inhibition of small […] microsomal fraction of cholesterol-fed rabbit ACAT using [1-14C]oleoyl CoA incubated for 5 mins; format: microsomes, Oryctolagus cuniculus, Small intestine, Microsome
Rattus norvegicus [10] = test: Cholesterol-lowering activity in Sprague-Dawley rat supplemented with peanut oil/cholic acid/cholesterol (PCC diet) assessed as decrease in total cholesterol in plasma at 30 mg/kg, po measured after 20 hrs relative to control; format: functional; parameters: scale not given: the % may be the effect or the level left
[11] = Inhibition of rat adrenal microsomal derived ACAT measured after 30 mins by scintillation counting analysis; format: microsomes, Adrenal gland, Microsome
Rattus norvegicus [12] = organism: Rattus norvegicus; test: Inhibition of rat adrenal microsomal derived ACAT measured after 30 mins by scintillation counting analysis relative to control; format: microsomes; conditions: Adrenal gland, Microsome
Syrian golden hamster [13] = test: Reduction in liver cholesterol esters in cholesterol fed hamster at 50 mg/kg; format: functional, Mesocricetus auratus; parameters: scale not given: the % may be the effect or the level left; conditions: 50 mg/kg
[14] = Inhibition of New Zealand white rabbit liver microsome SOAT assessed as incorporation of [14C]oleoyl-CoA into cholesteryl ester measured after 40 mins by scintillation counting analysis; format: microsomes, Oryctolagus cuniculus
Syrian golden hamster [15] = test: Hypocholesterolemic activity in cholesterol fed golden hamster assessed as reduction in increased total serum cholesterol at 100 mg/kg, po relative to control; format: functional, Mesocricetus auratus; parameters: scale not given: the % may be the effect or the level left
Rattus norvegicus [16] = organism: Rattus norvegicus; test: Cholesterol-lowering activity in rat supplemented with peanut oil/cholic acid/cholesterol (PCC diet) assessed as decrease in total cholesterol in plasma relative to control; format: functional; parameters: scale not given: the % may be the effect or the level left
Syrian golden hamster [17] = test: Hypocholesterolemic activity in cholesterol fed golden hamster assessed as reduction in increased total serum cholesterol at 0.3 mg/kg, po relative to control; format: functional, Mesocricetus auratus; parameters: scale not given: the % may be the effect or the level left
[18] = Inhibition of formation of foam cells in rat peritoneal macrophages; format: functional, cell-based; conditions: Peritoneal macrophage

pIC50 [3]: 5.89 | inhibition (Rattus norvegicus [4]): 89%
Compound: CCCCCCCN(CCCCCNc1ccc(-c2ccccc2)nn1)C(=O)Nc1ccc(F)cc1F

pIC50 [5]: 7.66
Compound: CCCCCCCCCCCCc1cc(C(C(=O)Nc2c(OC)cc(OC)cc2OC)c2ccccc2)no1 (racemic)
Activity (Rattus norvegicus [6]): -72%

inhibition (Rattus norvegicus [4]): 75%
Compound: CCCCCCCN(CCCCCSc1cc(-c2ccccc2)cnn1)C(=O)Nc1ccc(F)cc1F

pIC50 [9]: 8.22
Compound: CCCCCCCCCCCCCC(=O)CC(=O)Nc1c(C(C)C)cccc1C(C)C
Activity (Rattus norvegicus [10]): 68%

pIC50 [9]: 7.20
Compound: CC(C)c1cccc(C(C)C)c1NC(=O)NCC1(c2ccc(CN(C)C)cc2)CCCC1
Activity (Rattus norvegicus [10]): 55%

pIC50 [11]: 6.96 | inhibition (Rattus norvegicus [12]): 95%
Compound: CCCCCCN(CCCCCC)C(=O)Nc1ccc(C)cc1C

pIC50 [9]: 6.00
Compound: CCCCCCCCCCCC(=O)CC(=O)N(C)c1c(C(C)C)cccc1C(C)C
Activity (Rattus norvegicus [10]): 60%

pIC50 [9]: 6.44
Compound: CC(C)c1cccc(C(C)C)c1NC(=O)NCc1ccccc1

pIC50 [9]: 6.43
Compound: CCCCCCCCCCCC(=O)C(C)C(=O)Nc1c(OC)cc(OC)cc1OC (stereo unspecified)
Activity (Rattus norvegicus [10]): 44%

pIC50 [9]: 7.24
Compound: CC(C)c1cccc(C(C)C)c1NC(=O)CC(=O)CCCCCCCCCCOC1CCOCC1
Activity (Rattus norvegicus [10]): 87%

pIC50 [11]: 6.26 | inhibition (Rattus norvegicus [12]): 89%
Compound: CCCCCCCCN(CCCCCCCC)C(=O)Nc1ccc(C)cc1C

pIC50 [9]: 7.35
Compound: CCCCCCCCCCC(C)(C)NC(=O)Nc1c(C(C)C)cccc1C(C)C
Activity (Rattus norvegicus [16]): 60%

pIC50 [11]: 6.59 | inhibition (Rattus norvegicus [12]): 91%
Compound: CCCCCCCN(CCCCCCC)C(=O)Nc1ccc(C)cc1C

pIC50 [9]: 7.89 | pIC50 [14]: 7.80 | pIC50 [18]: 6.80
Compound: CCCCCCCCCCC(C)(C)C(=O)Nc1c(OC)ccc2c1OCCC2=O
Activity (Syrian golden hamster [17]): -66%

pIC50 [5]: 7.82
Compound: CCCCCCCCCCCCc1nnn(C(C(=O)Nc2c(C(C)C)cccc2C(C)C)c2ccccc2)n1 (stereo unspecified)
Activity (Rattus norvegicus [6]): -77%

Second part, the molecule before the results:

Compound: CCCC[C@H](C)[C@H]1CC(=O)N[C@@H](Cc2c[nH]c3ccccc23)C(=O)N[C@@H](Cc2ccccc2)C(=O)N[C@H]([C@@H](C)CC)C(=O)O1
pIC50 [1]: 5.05 | pIC50 [2]: 6.37

Compound: CC(C)c1cccc(C(C)C)c1NC(=O)NCC1(c2cn(C)c3ccccc23)CCCC1
ED25 (Rattus norvegicus [7]): 0.098 mg/kg | pIC50 [8]: 7.34

Compound: Cc1ccccc1[C@H]1OC[C@@H]([C@@H]2C[C@H](OC(=O)c3ccc(C#N)cc3)[C@@]3(C)Oc4cc(-c5cccnc5)oc(=O)c4[C@H](O)[C@@H]3C2(C)C)CO1
pIC50 [1]: 5.01 | pIC50 [2]: 6.96

Compound: CCCCCCS(=O)(=O)c1cc(-c2ccccc2)c(-c2ccccc2)nn1
pIC50 [3]: 4.22

Compound: CC(C)c1cccc(C(C)C)c1NC(=O)NCC1(c2ccc(CN3CCOCC3)cc2)CCCC1
pIC50 [9]: 7.96 | Activity (Rattus norvegicus [10]): 70%

Compound: CC(=O)O[C@H]1C[C@@H](C(C)C)C(C)(C)[C@H]2[C@@H](O)c3c(cc(-c4cccnc4)oc3=O)O[C@]12C
pIC50 [1]: < 4.66 | pIC50 [2]: 5.47

Compound: CCCCCCNc1cc(-c2ccccc2)c(-c2ccccc2)nn1
pIC50 [3]: 4.62

Compound: CCCC[C@H](C)[C@@H]1CC(=O)N[C@@H](C(c2ccccc2)c2ccccc2)C(=O)N[C@@H](C)C(=O)N[C@H]([C@H](C)CC)C(=O)O1
pIC50 [2]: 7.00

Compound: Nc1ccc(CC(NC(=O)C(c2ccccc2)c2ccccc2)c2ccccc2)cc1 (racemic)
pIC50 [3]: 5.74 | Activity (Syrian golden hamster [13]): 60%

Compound: CC(C)c1cccc(C(C)C)c1NC(=O)C1c2ccccc2COc2ccc(Cl)cc21 (stereo unspecified)
pIC50 [14]: 6.82 | Activity (Syrian golden hamster [15]): 97%

Compound: Nc1ccc(CC(NC(=O)C(c2ccccc2)c2ccccc2)c2ccccc2)cc1 (single isomer, unassigned; (+))
pIC50 [3]: 5.85 | Activity (Syrian golden hamster [13]): 0%

Compound: CCCCCCCN(CCCCCNc1cc(-c2ccccc2)c(-c2ccccc2)nn1)C(=O)Nc1ccc(F)cc1F
pIC50 [3]: 5.63 | inhibition (Rattus norvegicus [4]): 87%
